The text below walks through data of patent publication US20230277583A1, “ENTERAL CARBON MONOXIDE FOR THE PREVENTION AND TREATMENT OF OCULAR DISEASES” (Augusta University Research Institute, Inc., priority 2022, published 2023).

The nature of series [1]: CO concentration achievable in aqueous composition at various temperature and pressure. It counts as physicochemical. The procedure: For example, CO can be dissolved in an aqueous liquid under higher than ambient pressure. The use of pressure to dissolve the CO increases the achievable concentration of CO in solution. […] For example, lowering of the temperature below 2° C. and increasing the pressure above 10 ATM can achieve an even greater concentration of CO dissolved in the aqueous solution. […] Although raising the pressure above 10 ATM might not be commercially practicable, it is technologically feasible at this time.
The method of making a CO-containing liquid composition relies on the use of greater than atmospheric pressure (i.e., “high” pressure) to increase the amount of CO dissolved in the liquid composition. In some embodiments, at least 1.1 atmospheres (ATM) of pressure is used in the process of introducing CO into the liquid composition. Preferably, where high pressure is used, at least 1.2 ATM is used. In certain exemplary embodiments, 2 ATM, 3 ATM, or 5 ATM is used during introduction of CO into the liquid composition. It is contemplated that pressures above 5 ATM are also suitable, such as 6 ATM, 7 ATM, 8 ATM, and 10 ATM or higher. In accordance with the discussion concerning ranges set forth above, all specific values, and all possible ranges, falling within the atmospheric conditions discussed herein are contemplated. Furthermore, variations in the source of CO, the equipment used to introduce the CO into the liquid composition, the pressure of the CO being used (i.e., volume supplied per unit time), and the atmospheric pressures used will affect the amount of time required to achieve a suitable concentration of CO in the composition.
The method of making a CO-containing liquid composition preferably includes subjecting the composition to a low temperature during the step of exposing the liquid to CO. […] A low temperature is typically a temperature at or below 4° C., preferably at or below 2° C., such as 1° C., 0° C., −1° C., −2° C., −3° C., −4° C., −5° C., −6° C., −10° C., −12° C., −14° C., −16° C., −18° C., −20° C., or below. In embodiments where the composition is exposed to a low temperature, it is preferred that the CO-containing liquid composition be sealed to preclude loss of dissolved CO over time. Accordingly, in embodiments, the method of making a CO-containing liquid composition includes dispensing the liquid composition into a sealable container and sealing the container after an appropriate amount of CO has been dissolved in the liquid composition. Dispensing of the liquid can be performed before, during, or after dissolving CO into the liquid composition. Typically, sealing will be performed under low temperature to minimize loss of dissolved CO during the process of sealing. As discussed above, any number of sealable containers and caps are known in the art of bottling and canning of liquids, and any of these can be used within the context of the present disclosure. For the sake of clarity, in embodiments where both high pressure and low temperature are used, it is preferred that sealing be performed under both high pressure and low temperature, although the same pressure and temperature used for dissolving CO into the liquid need not be used. Further, it is to be understood that, once the CO-containing liquid is sealed in a container under CO gas, it is not necessary to maintain the sealed container at high pressure and low temperature, as the sealed container will not allow dissolved CO to escape from solution.

The conditions of series [2]: cited from earlier work.
The conditions of series [3]: low dose CO reaching <20% COHb saturation; cited from earlier work.

For the molecule `[C-]#[O+]` [CO, carbon monoxide], the “CO Concentration Achievable in Aqueous Composition” value in series [1] (2° C., 1 ATM) was 40 mg/L water; in series [1] (2° C., 2 ATM), 80 mg/L water; in series [1] (2° C., 3 ATM) it was 120 mg/L water; in series [1] (2° C., 5 ATM), 200 mg/L water; in series [1] (2° C., 10 ATM) it was 400 mg/L water; in series [1] (21° C., 1 ATM) it was 25 mg/L water. Also, the “CO Concentration in Aqueous Solution” value in series [1] (2° C., 1 ATM) is 40 mg/L water; in series [1] (2° C., 2 ATM) it was 80 mg/L water; in series [1] (2° C., 3 ATM), 120 mg/L water; in series [1] (2° C., 5 ATM) it was 200 mg/L water; in series [1] (2° C., 10 ATM), 400 mg/L water. The “half-life of the alpha-phase of CO in the human bloodstream” value in series [2] is 4 to 6 h. Besides, the safety and tolerability result in series [3] is “safe and tolerable”.
